“And” between values parts separate entries of the source, which are not always exact repeats. Identical values can stand only once.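 48-hour exposure; five concentrations; linearly interpolated endpoints. GI50 is the concentration that inhibits growth by half. The concentration for full growth arrest is given as TGI.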
Tests used:
Experiment in all cases: NCI anticancer screen, dose series, 48 h
[1] = test system: CAKI-1 renal
[2] = test system: TK-10 renal
[3] = test system: MCF7 breast
[4] = test system: HCT-15 colon
[5] = test system: HS 578T breast
[6] = test system: SF-539 CNS
[7] = test system: PC-3 prostate
[8] = test system: SK-OV-3 ovarian
[9] = test system: A498 renal
[10] = test system: HOP-62 NSCLC

Structure (SMILES) | GI50 [1] | TGI [1] | GI50 [2] | TGI [2] | GI50 [3] | TGI [3] | GI50 [4] | TGI [4] | GI50 [5] | TGI [5] | GI50 [6] | TGI [6] | GI50 [7] | TGI [7] | GI50 [8] | TGI [8] | TGI [9] | TGI [10] | GI50 [10] | GI50 [9]
Cc1cn2c(/C=N/N=C(N)N)c(-c3cccs3)nc2s1 | 13.7 µM | 27.5 µM | 12.9 µM | 26 µM | 2.79 µM | 13.7 µM | 4.3 µM | 18.4 µM | 11.4 µM | 32.6 µM | 1.6 µM | 3.12 µM | 2.99 µM | 12.4 µM | 17.5 µM | 37.6 µM |  |  |  | 
Cc1c(C(=O)/C=C/c2ccc(N(C)C)cc2)c(=O)n(-c2ccccc2)n1C |  | > 100 µM |  | > 100 µM |  |  |  | > 100 µM |  |  |  | > 100 µM |  |  |  | > 100 µM | > 100 µM |  |  | 
C[N+](C)(C)CC(=O)N/N=C(\C(=O)NC1=C(Cl)C(=O)c2ccccc2C1=O)C(C#N)c1csc(-c2ccc([N+](=O)[O-])cc2)n1 (stereo not drawn) |  | > 100 µM |  | > 100 µM |  |  |  | > 100 µM |  |  |  | > 100 µM |  |  |  | > 100 µM | > 100 µM | > 100 µM |  | 
CCc1cccc(CC)c1NC(=O)C1=C(C)NC(C)=C(C(=O)Nc2c(CC)cccc2CC)C1c1ccc([N+](=O)[O-])cc1 |  | > 100 µM |  | 82.5 µM |  |  |  |  |  |  |  | 39.8 µM |  |  |  | 96.4 µM | 64 µM | > 100 µM |  | 
O=c1c2cccc3cccc(c4n1CCN=4)c32 |  | > 100 µM |  | 69.1 µM |  |  |  | > 100 µM |  |  |  | > 100 µM |  |  |  | > 100 µM | > 100 µM | > 100 µM |  | 
COc1ccc(OC)c(-c2cc(-c3ccc(Cl)cc3)nn2-c2ccc(S(=O)(=O)NC(C)=O)cc2)c1 | 37.6 µM | > 100 µM | 19.3 µM | 38.2 µM | 26.4 µM | > 100 µM | 3.29 µM | 18.8 µM | 38.2 µM | > 100 µM |  |  | 3.61 µM | 21.9 µM |  |  |  | 22.2 µM | 10.5 µM | 
SCCSCCCSCCS |  |  |  |  |  | > 100 µM |  | > 100 µM |  |  |  | > 100 µM |  | > 100 µM |  | > 100 µM |  | > 100 µM |  | 
CO[C@H](C(=O)[C@@H](O)[C@@H](C)O)[C@@H]1Cc2cc3cc(OC4CC(OC5CC(O)C(O)C(C)O5)C(O)C(C)O4)c(C)c(O)c3c(O)c2C(=O)[C@H]1OC1CC(OC2CC(OC3CC(C)(O)C(O)C(C)O3)C(O)C(C)O2)C(O)C(C)O1 (stereo partly drawn) | 0.11 µg/mL and 0.0722 µg/mL |  | 0.0792 µg/mL and 0.288 µg/mL |  | 0.0143 µg/mL and 0.0152 µg/mL |  | 0.286 µg/mL and 0.843 µg/mL |  |  |  | 0.0233 µg/mL and 0.0157 µg/mL |  |  |  | 0.0437 µg/mL |  |  |  | 0.0237 µg/mL and 0.02 µg/mL | 0.0084 µg/mL and 0.0164 µg/mL
COC(=O)C(Cc1nc2ccccc2[nH]c1=O)C(=O)C(=O)Nc1ccc([N+](=O)[O-])cc1[N+](=O)[O-] (stereo not drawn) |  | > 100 µM |  | 61.4 µM |  |  |  | 34.5 µM |  |  |  | 38.5 µM |  |  |  | 64.6 µM | 40.9 µM | 45.4 µM |  | 
CCc1cc(CCC(=O)Nc2c(C)cccc2C)[nH]n1 |  | > 100 µM |  | > 100 µM |  |  |  | > 100 µM |  |  |  | > 100 µM |  |  |  | > 100 µM | > 100 µM | > 100 µM |  | 
O=Cc1ccc(-c2ccc(-c3nc4ccccc4o3)cc2)o1 | 22.6 µM | 65.9 µM | 32.5 µM | 74.8 µM | 14.8 µM | > 100 µM | 19.7 µM | 53.4 µM |  |  | 32.3 µM | > 100 µM | 30.3 µM | > 100 µM | 41.9 µM | > 100 µM | > 100 µM | > 100 µM | 49.2 µM | 21.2 µM
CCC(CNc1cc(OC)cc2cccnc12)NC1CCCCC1 (stereo not drawn) | 21.9 µM | > 100 µM |  |  | 20.7 µM | > 100 µM | 34.9 µM | > 100 µM | 15.2 µM | 95.6 µM | 56.8 µM | > 100 µM |  |  | > 100 µM | > 100 µM | > 100 µM | > 100 µM | 66 µM | 29.7 µM
CN(C)C=C1C(Cl)=C(C=O)CC(C=O)=C1Cl |  | 31.2 µM |  | 31.8 µM |  |  |  | 11.9 µM |  |  |  | 27.9 µM |  |  |  | 79.7 µM |  | 51.7 µM |  | 
C=C(Nc1ccc([N+](=O)[O-])cc1[N+](=O)[O-])c1c/c(=N\NC(N)=S)c2ccccc2o1 |  | > 100 µM |  | > 100 µM |  | > 100 µM |  | > 100 µM |  | > 100 µM |  | 55.7 µM |  | > 100 µM |  | > 100 µM |  | > 100 µM |  | 
COc1ccc(C2SCC(=O)N2NC(=O)c2ccc(NC(C)=O)cc2)cc1 (stereo not drawn) |  |  |  | > 100 µM |  | > 100 µM |  | > 100 µM |  | > 100 µM |  | > 100 µM |  |  |  | > 100 µM | > 100 µM | > 100 µM |  | 
Cc1cc(Cl)ccc1NC(=O)C(=O)C(C(=O)c1ccc2ccccc2c1)C1OC(=O)c2ccccc21 (stereo not drawn) |  | 35.5 µM |  |  |  |  |  | 50.9 µM |  |  |  | 17.4 µM |  |  |  | 49.1 µM | 25.6 µM | 26.6 µM |  | 
CCOC(=N)CC(=O)c1ccccc1 |  | > 100 µM |  | > 100 µM |  |  |  |  |  |  |  | > 100 µM |  |  |  | > 100 µM | > 100 µM | > 100 µM |  | 
CCCN(CCCC(NC(C)=O)C(=O)NCc1ccccc1)C(=O)NCCCl (stereo not drawn) |  | > 100 µM |  | > 100 µM |  |  |  | > 100 µM |  |  |  | > 100 µM |  |  |  |  |  | > 100 µM |  | 
COc1cc(CNC2c3cc4c(cc3C(c3cc(OC)c(OC)c(OC)c3)[C@H]3C(=O)OCC23)OCO4)cc(OC)c1OC (stereo partly drawn) |  |  |  | > 100 µM |  |  |  | > 100 µM |  |  |  | 0.403 µM |  |  |  | > 100 µM | 0.762 µM | 0.631 µM |  | 
Cc1cc(C)c(Cn2cnc3c(Cl)ncnc32)c(C)c1CCl |  |  |  |  | 30.5 µM | > 100 µM | 0.343 µM | 18.8 µM | > 100 µM | > 100 µM | > 100 µM | > 100 µM | > 100 µM | > 100 µM | 53.7 µM | > 100 µM | > 100 µM | > 100 µM | > 100 µM | > 100 µM
CCCCCCCCCCCCCCCCCC(=O)OCC(COC(=O)CCCN)OC(=O)CCCN (stereo not drawn) |  | 35.5 µM |  | 36.7 µM |  | 47.1 µM |  | 52.3 µM |  | 43.7 µM |  | 32.2 µM |  | 35.5 µM |  | 34.3 µM |  | 33.8 µM |  | 
CSc1n[n+]2c(s1)SCCC2 |  | > 100 µM |  | > 100 µM |  |  |  |  |  |  |  | > 100 µM |  |  |  |  |  | > 100 µM |  | 

From PubChem BioAssay (NCI)
